pEC50: −log10 of the molar value. Where two headings read alike, the source gives them in different places.
Assays:
[1] = system: HepG2 cells; assay: MTT cytotoxicity assay on HepG2 cells; assay type: cell-based, Human
Protocol: (§1) Compound cytotoxicity on Human Hepatocyte Carcinoma (HepG2) cells (85011430, Sigma Aldrich) was elucidated by the MTT (3-(4,5-dimethylthiazol-2-yl)-2,5-diphenyltetrazolium bromide) tetrazolium reduction assay as previously described, [28], [50]. Briefly, HepG2 cells were seeded at a density of 20,000 per well in 96-well black, clear bottom falcon plate in modified BME medium (50 μl; containing 1% antibiotic/mycotic (Sigma-Aldrich, Gillingham, UK), 1% 200 mM L-glutammine (Gibco, Paisley, UK), 1% MEM non-essential amino acid solution (Gibco, Paisley, UK), and 10% fetal bovine serum (Gibco, Paisley, UK)). HepG2 plates seeded for cytotoxicity screens were treated with compounds 24 h post-seeding. Each compound was tested at 200, 100, 75, 50, 20, 10 and 1 µM; each concentration was assayed in triplicate. Blank wells (no cells), as well as positive (1% v/v Triton X-100, X100, Sigma-Aldrich) and negative (1.25% v/v DMSO or media only) controls, were included in each plate. After addition of compounds, each plate was then incubated for a further 20 h before application of MTT reagent for assessment of compound cytotoxicity (4 h incubation with MTT for a total 24 h cell-drug incubation). The absorbance reading at 570 nm was measured with a POLARstar Omega (BMG Labtech, UK) microtiter plate reader. Dose response curves were generated in GraphPad Prism 7.02 based on the corrected average absorbance of the three replicates for each concentration point.

[2] = MTT cytotoxicity assay on HepG2 cells; assay type: cell-based, Human; conditions: human, HepG2 cells, MTT, 24 h; three dose response titrations (200 - 1 µM)
Protocol: as §1

[3] = system: S. mansoni adult worms; assay: Adult worm screens (WormassayGP2 motility, egg count); assay type: cell-based, Schistosoma mansoni; conditions: 72 h
Protocol: For compound screening, adult worms (three worm pairs/well for compound 7 and the hit compounds of set two; one worm pair/well for the hit compounds of set three) were transferred into wells of a 48-well tissue culture plate containing 1 ml of adult worm media. Adult worms were treated with compounds previously identified as hits at 10 µM on 72 h cultured schistosomula. Worms were dosed with an appropriate volume of 10 mM stock solution of each compound (in DMSO) to have a concentration range of 50 – 6.25 µM (up to 0.5% DMSO, primary screen of compound 7). Secondary screens were performed on the structural analogues of compound 7 (only the schistosomula hits at 10 µM) at a single concentration (12.5 µM) and compared to the same concentration of the parental compound (included in the screen as reference). DMSO (0.5%) and praziquantel (10 µM in 0.5% DMSO) were also included as negative and positive control treatments (both primary and secondary screens). Treated adult worms were incubated for 72 h in a humidified environment at 5% CO 2 at 37°C. Parasite motility after drug treatment was assessed by a digital image processing-based system (WormassayGP2, see Software availability) modified after Wormassay, [56], [57]. Egg production was assessed according to the methodology described by Edwards et al..

[4] = system: S. mansoni schistosomula; assay: Schistosomula screens (Roboworm, phenotype and motility); assay type: cell-based, Schistosoma mansoni; conditions: 72 h; for pEC50: Schistosoma mansoni, dose response titrations (10 - 0.625 µM)
Protocol: Anthelmintic activity on the schistosomula stage of S. mansoni was evaluated using Roboworm, an integrated high-throughput, high content image analysis platform originally developed by Paveley et al. and subsequently used by our research group as previously described, [28], [50], [51]. Alternatively, the computer application Worminator can be used to assess motion of microscopic parasites such as the schistosomula stage of S. mansoni. Compounds (as single concentration or two-fold titrations) were prepared for screening in a 384-well plate (PerkinElmer, MA, USA), where solutions (1.6 mM, 0.5 μl) were wet stamped using the Biomek NX ^P liquid handling platform into Basch medium (20 μl). Negative (0.625% DMSO) and positive (Auranofin - AUR - at 10 µM final concentration in 0.625% DMSO) control wells were similarly prepared. Mechanically transformed schistosomula (about 120 parasites in 60 μl of Basch medium) were distributed into each treated well using a WellMate (Thermo Scientific, Loughborough, UK). Schistosomula/compound co-cultures were then incubated at 37°C for 72 h in a humidified atmosphere containing 5% CO 2. At 72 h, parasite/compound co-cultures were resuspended and tissue culture plates were imaged under the same conditions (37°C for 72 h in a humidified atmosphere containing 5% CO 2) using an ImageXpressXL high content imager (Molecular Devices, UK) with subsequent images processed for phenotype and motility as previously reported. Plate analysis returned a phenotype and motility score for each well and any scores below -0.15 and -0.35 (defined threshold anti-schistosomula values for phenotype and motility scores, respectively) defined a condition displaying anti-schistosomula activity. Compound screens were assessed based on the Z´ values (derived from the means and standard deviations of positive and negative controls) and those equal to or above 0.3 for both phenotype and motility were considered successful.
Phenotype and motility scores of each titration were used to generate dose response curves in GraphPad Prism 7.02 based on the corrected average score of the three replicates for each data point.

[5] = system: S. mansoni miracidia; assay: Miracidia to sporocyst transformation screens; assay type: cell-based, Schistosoma mansoni; conditions: 10 µM, 48 h
Protocol: Following hatching of S. mansoni eggs, miracidia were incubated on ice for 15 min and then centrifuged at 700 x g for 5 min at 4°C. The miracidia pellet was then re-suspended in 5 ml of Chernin's balanced salt solution (CBSS), subjected to pelleting and two subsequent washes (all at 700 x g for 5 min at 4°C). Afterwards, the supernatant was carefully removed with a serological pipette and the miracidia-enriched pellet was resuspended with CBSS supplemented with 1 mg/ml each of glucose and trehalose and 500 µl of Penicillin-Streptomycin (containing 10,000 units penicillin and 10 mg streptomycin/ml, P4333, Sigma-Aldrich). In preparation for the screens, CBSS (250 µl) was aliquoted to each well of a 24-well plate followed by addition of each compound in DMSO (1 mM concentration in 1% DMSO) or DMSO alone (1%, negative control). Next, approximately 20-25 miracidia (in 250 µl of CBSS) were aliquoted to each well. […] Both preliminary and secondary screens were performed in duplicate on two separate occasions (two independent biological replicates). Miracidia were incubated for 48 h at 26°C before being evaluated using an Olympus inverted light microscope for morphological and behavioural changes differing from the control wells. Dead, partially transformed and fully transformed miracidia were enumerated in the DMSO control and the assay plates as previously described, [23], [59]. […] Absence of ciliated plates attached to the surface of the parasite and formation of sporocyst tegument defined the so-called “fully transformed” parasites.

[6] = system: Schistosoma mansoni; set-up: method as in PMID 24037106; conditions: cited from earlier work
[7] = system: Schistosoma mansoni; set-up: method as in PMID 24037106; conditions: cited from earlier work; remark: listed apart in the source

pEC50 ([4]; read-out: Schistosomula EC50 Motility)	pEC50 ([4]; read-out: Schistosomula EC50 Phenotype)	SMILES	CC50 ([1]; MTT, 24 h, three dose response titrations (200 - 1 µM)) [µM]	cytotoxicity on HepG2 cells (in words) ([1]; dose response titration)	CC50 at 24 h [2] [µM]	adult worm motility and oviposition ([3]; 6.25 µM, compared to compound 7)	adult worm egg production ([3]; 12.5 µM)	adult worm motility compared to compound 7 ([3]; 12.5 µM)	anti-schistosomula activity (hit on phenotype and motility) ([4]; 50 µM)	effect on miracidia [5]	in vivo anti-schistosomal activity [6]	in vitro anti-schistosomal activity [7]
5.55	5.51	Cc1ccc(Nc2nc(C3CCCCC3)nc(N3CCNCC3)n2)cc1 [Compound 23]	6.73	showed the highest toxicity	< 10	strong anthelmintic activities	greater potency than compound 7	greater potency than compound 7	active at the highest concentration	readily killed miracidia	–	–
–	–	Cc1ccc(NC(=O)c2ccc(CN3CCN(C)CC3)cc2)cc1Nc1nccc(-c2cccnc2)n1 [Imatinib]	–	–	–	–	–	–	–	–	lost in vivo	potent in vitro anti-schistosomal activity
